Experiments:
[1] = biological target: T1, Tau hexapeptide (306)VQIVYK(311) (PHF6) (Homo sapiens, UniProt P10636); experiment: Inhibition of PHF6 self-aggregation (ThT fluorescence, TFE cosolvent); type: biochemical; details: inhibitor 25 μM, PHF6 50 μM
T1 construct: Tau hexapeptide (306)VQIVYK(311) (PHF6); purchased JPT Peptide Technologies GmbH, Berlin, Germany; host or cells: synthetic peptide
Text: As an additional proof of the potential of DAN in interfering with AD-related processes, we investigated the effects on the in vitro self-aggregation of beta amyloid peptide 1–40 (Aβ40) and Tau hexapeptide (306)VQIVYK(311) (PHF6). Aβ40 is used as an in vitro probe of the fibrillization process leading to amyloid fibrils and ultimately to senile plaques in AD [32], while PHF6 represents the highly proaggregating sequence of the repeated domain R3 of Tau protein, responsible of the formation of neurofibrillary tangles and other tauopathies in NDs. […]
Highly aggregating hexapeptide Ac-VQIVYK-NH2 (trifluoroacetate salt; JPT Peptide Technologies GmbH, Berlin, Germany) was used as mimic of tau fibrillization in vitro. […] Incubation samples were prepared in black low-binding, flat-bottomed polystyrene 96-well microtiter plates, containing PHF6 (final conc. 50 μM), inhibitor (25 μM) and ThT (10 μM) in a final volume of 180 μL, and immediately read with Tecan Infinite M1000 Pro instrument. Samples were set in triplicate and their fluorescence values subtracted of the blank. […] Fluorescence was measured at 440/485 excitation/emission wavelength within 2 h at 25 °C. Endpoint fluorescence values (arbitrary fluorescence units, AFU) were used for the calculation of residual aggregation as in Equation (1): % residual aggregation = 100 × AFUsample/AFUcontrol(1)

hMAO A = biological target: T2, hMAO A (Homo sapiens, UniProt P21397); experiment: biochemical
T2 sequence (P21397 1-527): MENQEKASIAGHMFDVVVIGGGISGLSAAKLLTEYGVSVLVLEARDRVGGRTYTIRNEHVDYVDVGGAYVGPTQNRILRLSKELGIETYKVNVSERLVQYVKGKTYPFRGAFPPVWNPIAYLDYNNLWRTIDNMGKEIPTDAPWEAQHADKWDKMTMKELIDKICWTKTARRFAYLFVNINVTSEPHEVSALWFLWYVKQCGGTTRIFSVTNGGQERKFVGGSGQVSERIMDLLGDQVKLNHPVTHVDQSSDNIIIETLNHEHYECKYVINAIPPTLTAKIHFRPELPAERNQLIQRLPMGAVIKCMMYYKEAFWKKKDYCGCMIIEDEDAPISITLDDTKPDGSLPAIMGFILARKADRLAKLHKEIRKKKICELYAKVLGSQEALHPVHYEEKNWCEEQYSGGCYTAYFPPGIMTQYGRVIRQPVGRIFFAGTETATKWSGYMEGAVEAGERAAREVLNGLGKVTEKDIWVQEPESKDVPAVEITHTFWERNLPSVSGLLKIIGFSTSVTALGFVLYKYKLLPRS
Protocol: Selectivity over the corresponding isoforms hMAO A and butyrylcholinesterase (hBChE) was also verified.
An already published protocol using human recombinant monoamine oxidases A (250 U/mg) and B (59 U/mg; microsomes from baculovirus infected insect cells) [29] was used by applying a 96-well plate technique (instrument Infinite M1000 Pro, Tecan, Cernusco s.N., Italy). Briefly, compounds at a concentration ranging from 30 to 0.01 μM were preincubated 20 min at 37 °C with substrate kynuramine, in phosphate buffer 8.0 made 0.39 osmolar with KCl. After addition of enzyme and further 30 min of incubation, NaOH was added and the fluorescence read at 310/400 excitation/emission wavelength. Experiments were performed in duplicates in black, flat-bottomed polystyrene 96-well microtiter plates (Greiner Bio-One GmbH, Frickenhausen, Germany). […] Inhibition values and kinetics were calculated by means of Prism (GraphPad Prism version 5.00 for Windows, GraphPad Software, San Diego, CA, USA).

SH-SY5Y cells = experiment: DCF-DA assay of dopamine-induced ROS production; type: cell-based; details: dopamine 10 nM insult, compound 100 nM
Protocol: In order to get further information about the potential neuroprotective effects exerted by DAN, we tested it in a 2′,7′-dichlorofluorescin diacetate (DCF-DA) fluorescence-based assay, measuring the production of ROS induced by dopamine in cultured SH-SY5Y cells. Immortalized neuroblastoma cells are a widely used model for neuroprotection assays, while dopamine at a concentration of 10 nM acts as an inducer of oxidative stress, being metabolized by MAOs to form hydrogen peroxide. Once hydrolyzed and oxidized, DCF acts as the fluorescing probe of the OS state of cells. In the presence of an antioxidant, or even of a MAO inhibitor, ROS burden is lowered and DCF fluorescence decreased. […] Its activity is completely superimposable to that of phenelzine, a nonselective MAO inhibitor used as a positive control in Figure 5B [41]. […]
ROS production in SH-SY5Y cell line was detected using Cellular Reactive Oxygen Species Detection Assay Kit ([…]; Abcam, Cambridge, UK). […] After washing, the fluorescence was read immediately, and the readings were taken every 15 min in a 60-min time interval. Fluorescence signal at 535 nm (excitation at 485 nm) was measured using Tecan Infinite M1000 Pro (Tecan, Mannedorf, Switzerland).

**Q.** How did the inhibition at 25 µM [1] turn out when `O=C1CN(/N=C/c2ccc(-c3ccc([N+](=O)[O-])cc3)o2)C(O)=N1` [Dantrolene] was run?
**A.** The inhibition at 25 µM was 32%.

**Q.** And the IC50 (hMAO A)?
**A.** The IC50 was 14 ± 1 µM.

**Q.** And the “reduction of ROS oxidation of DCF” value (SH-SY5Y cells)?
**A.** The value was “very effective”.

— publication PMC6930524, “A Prospective Repurposing of Dantrolene as a Multitarget Agent for Alzheimer’s Disease” (Molecules, 2019)
